# Measured values taken from patent US20070249607A1, “NK-1 AND SEROTONIN TRANSPORTER INHIBITORS” (Bristol-Myers Squibb Company, priority 2006, published 2007).
# Like-named read-outs stand apart in the source and are kept apart here.
# Assays:
# [1] = molecular target: T1, neurokinin-1 (NK-1) receptor (Homo sapiens, UniProt P25103); assay: NK-1 Binding assay ([125I] Substance P competition, U373 cell membranes); conditions: Table 2; U373 membranes, [125I] Substance P displacement; read-out: NK-1 IC50
# T1 construct: a human glioblastoma-astrocytoma cell line that endogenously expresses the neurokinin-1 (NK-1) receptor; endogenous in cells; host or cells: U373 human glioblastoma-astrocytoma cells (membranes)
# Experimental: NK-1 Binding assay. U373 cells, a human glioblastoma-astrocytoma cell line that endogenously expresses the neurokinin-1 (NK-1) receptor, were grown in a monolayer culture at 37° C. in 5% CO2 and fed with Minimum Essential Medium (MEM) supplemented with 10% fetal bovine serum. Membranes were prepared as follows: Cells were washed twice with ice-cold phosphate-buffered saline (pH 7.4) and then incubated for 5-10 minutes with ice-cold 10 mM Tris buffer (pH 7.4) containing 5 mM EDTA. Cells were removed from plates, homogenized, and centrifuged at 32,000×g for 20 minutes. The resulting supernatant was discarded, and the pellet resuspended by homogenization in 50 mM Tris buffer (pH 7.4) containing 1 mM EDTA and centrifuged at 32,000×g for 20 minutes. The resulting supernatant was discarded, and the pellet resuspended by homogenization in NK-1 binding assay buffer (50 mM Tris-HCL (pH 7.4), 3 mM MnCl2, 200 μg/ml BSA, 5 μg/ml chymostatin, 40 μg/ml bacitracin and 4 μg/ml leupeptin).
# On the day of an experiment the membrane preparation was thawed, homogenized and diluted with NK-1 binding assay buffer to the appropriate concentration. […] Substance P, at a concentration of […], and concentrations of drugs ranging from 10000 to 0.01 nM. Samples were incubated for 30 min at 20° C. then filtered through GF/B glass fiber filters (pretreated with 1% polyethyleneimine and 0.3% Triton X-100) using a Brandel cell harvester. The filters were then washed with 10 ml ice cold 50 mM Tris-HCL (pH 7.4) containing 3 mM MgCl2. […] The amount of radioligand bound in the presence and absence of competitor was analyzed by plotting (-)log drug concentration versus the amount of radioligand specifically bound. The midpoint of the displacement curve (IC50, nM), signifies the potency.
# [2] = molecular target: T2, human serotonin transporters (Homo sapiens, UniProt P31645); assay: Serotonin transporter binding assay ([3H]-citalopram competition, HEK-hSERT cell membranes)
# T2 construct: expressed in transfected cells
# Experimental: Serotonin transporter binding assay. HEK-293 cells that stably express human serotonin transporters (HEK-hSERT cells) were grown at 37° C. in 5% CO2 as a monolayer in medium consisting of EMEM supplemented with 10% fetal bovine serum and G418 sulfate (500 μg/ml). To prepare membranes for radioligand binding experiments, cells were rinsed twice with phosphate-buffered saline (138 mM NaCl, 4.1 mM KCl, 5.1 mM Na2PO4, 1.5 mM KH2PO4, 11.1 mM glucose, pH 7.4). Cells were transferred from plates to polypropylene tubes (16×100 mm), centrifuged at 1,200×g for 5 min and were frozen at −80° C. until assay. Following centrifugation, pellets were resuspended by homogenization in buffer consisting of 50 mM Tris (pH 7.7 at 25° C.), 120 mM NaCl and 5 mM KCl and then centrifuged at 32,000×g for 10 min. Following centrifugation, supernatants were discarded and pellets were resuspended in buffer consisting of 50 mM Tris (pH 7.4 at 25° C.), 150 mM NaCl and 5 mM KCl. Membrane homogenates (200 μl/plate) were incubated with 1 nM [^3H]-citalopram (specific activity=85 Ci/mmol) and increasing concentrations of test compounds for 1 hr at 25° C. in a total volume of 250 μl. The assay buffer consisted of 50 mM Tris (pH 7.4 at 25° C.), 120 mM NaCl and 5 mM KCl (pH 7.4 with conc. HCl). Plates were incubated for 1 hr at 25° C., then filtered through 0.5% PEI treated Whatman GF/B filters using a Brandel cell harvester. Filters were washed three times with 3 ml of ice-cold tris wash buffer. Non-specific binding was defined with 10 μM fluoxetine. Amount of radioligand bound in the presence and absence of competitor was analyzed by plotting (-)log drug concentration versus the amount of radioligand specifically bound. The midpoint of the displacement curve (IC50, nM), signifies the potency. Ki values can be calculated using the method of Cheng and Prusoff (Cheng and Prusoff, BiochemicalPharmacology, Vol 22, pp. 3099-3108, Pergamon Press (1973)).
# [3] = Table 2, HEK-hSERT membranes, [3H]-citalopram displacement, read-out: SERT IC50
# T2 sequence (P31645 whole entry): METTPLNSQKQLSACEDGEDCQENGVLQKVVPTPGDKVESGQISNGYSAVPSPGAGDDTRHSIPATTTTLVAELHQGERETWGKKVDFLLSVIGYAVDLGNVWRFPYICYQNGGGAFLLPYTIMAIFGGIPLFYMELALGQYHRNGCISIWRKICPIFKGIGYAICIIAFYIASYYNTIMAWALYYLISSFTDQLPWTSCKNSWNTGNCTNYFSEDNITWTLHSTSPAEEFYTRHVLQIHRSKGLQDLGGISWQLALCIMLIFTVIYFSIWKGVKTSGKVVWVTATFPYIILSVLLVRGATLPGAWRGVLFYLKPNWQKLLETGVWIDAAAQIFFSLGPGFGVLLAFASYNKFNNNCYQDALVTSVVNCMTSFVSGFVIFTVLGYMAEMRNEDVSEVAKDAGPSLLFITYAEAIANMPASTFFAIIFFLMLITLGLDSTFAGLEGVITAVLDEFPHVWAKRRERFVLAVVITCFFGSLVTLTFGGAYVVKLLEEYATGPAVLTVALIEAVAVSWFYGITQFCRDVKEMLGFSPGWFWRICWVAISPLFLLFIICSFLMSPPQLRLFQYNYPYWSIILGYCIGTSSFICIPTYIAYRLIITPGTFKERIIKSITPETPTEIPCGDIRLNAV
# T1 sequence (P25103 whole entry): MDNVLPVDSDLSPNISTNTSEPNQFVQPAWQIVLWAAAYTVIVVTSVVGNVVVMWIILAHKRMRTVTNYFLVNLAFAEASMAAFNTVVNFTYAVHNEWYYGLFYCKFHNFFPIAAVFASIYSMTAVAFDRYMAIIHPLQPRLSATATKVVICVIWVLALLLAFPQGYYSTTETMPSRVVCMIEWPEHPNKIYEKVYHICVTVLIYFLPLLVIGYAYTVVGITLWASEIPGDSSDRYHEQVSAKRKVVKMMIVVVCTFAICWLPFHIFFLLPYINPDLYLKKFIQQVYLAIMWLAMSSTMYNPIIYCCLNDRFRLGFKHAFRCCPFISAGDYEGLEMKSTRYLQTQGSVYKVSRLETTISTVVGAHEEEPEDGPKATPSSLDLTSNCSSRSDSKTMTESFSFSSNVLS
IC50 [1],"IC50 [2, 3]",SMILES,IC50 [2]
0.01 to 100 nM,0.01 to 100 nM,Cn1cc(-c2cc(COCC3(c4ccccc4)CCNCC3)cc(C(F)(F)F)c2)cn1,
100 to 300 nM,0.01 to 100 nM,Fc1cnc(Cl)c(-c2cc(COCC3(c4ccccc4)CCNCC3)cc(C(F)(F)F)c2)c1,
0.01 to 100 nM,0.01 to 100 nM,FC(F)(F)c1cc(COCC2(c3ccccc3)CCNCC2)cc(-c2c(C(F)(F)F)cccc2C(F)(F)F)c1,
> 300 nM,0.01 to 100 nM,FC(F)(F)Oc1cccc(-c2cc(COCC3(c4ccccc4)CCNCC3)cc(C(F)(F)F)c2)c1,
> 300 nM,100 to 300 nM,CC(C)Cc1ccc(-c2cc(COCC3(c4ccccc4)CCNCC3)cc(C(F)(F)F)c2)cc1,
0.01 to 100 nM,0.01 to 100 nM,Fc1cccc(-c2cc(COCC3(c4ccccc4)CCNCC3)cc(C(F)(F)F)c2)c1F,
0.01 to 100 nM,0.01 to 100 nM,Cc1cc(C#N)ccc1-c1cc(COCC2(c3ccccc3)CCNCC2)cc(C(F)(F)F)c1,
0.01 to 100 nM,0.01 to 100 nM,N#Cc1ccc(-c2cc(COCC3(c4ccccc4)CCNCC3)cc(C(F)(F)F)c2)nc1,
0.01 to 100 nM,0.01 to 100 nM,N#Cc1ccc(-c2cc(Cl)cc(COCC3(c4ccccc4)CCNCC3)c2)cc1,
0.01 to 100 nM,0.01 to 100 nM,N#Cc1ccc(-c2cc(C#N)cc(COCC3(c4ccccc4)CCNCC3)c2)cc1,
0.01 to 100 nM,100 to 300 nM,C[C@H](OCC1(c2ccccc2)CCNCC1)c1cc(-c2ccc(C#N)cc2)cc(C(F)(F)F)c1,
0.01 to 100 nM,0.01 to 100 nM,N#Cc1ccc(-c2cc(F)cc(COCC3(c4ccccc4)CCNCC3)c2)cc1,
> 300 nM,0.01 to 100 nM,Fc1ccc(-c2cc(F)cc(COCC3(c4ccccc4)CCNCC3)c2)cc1,
0.01 to 100 nM,0.01 to 100 nM,Fc1ccc(-c2cc(COCC3(c4ccc(F)cc4)CCNCC3)cc(C(F)(F)F)c2)cc1,
0.01 to 100 nM,0.01 to 100 nM,CC(OCC1(c2ccccc2)CCNCC1)c1cc(F)cc(-c2ccc(C#N)cc2)c1 (stereo not drawn),
0.01 to 100 nM,0.01 to 100 nM,CC(OCC1(c2ccccc2)CCNCC1)c1cc(Cl)cc(-c2ccc(C#N)cc2)c1 (stereo not drawn),
0.01 to 100 nM,0.01 to 100 nM,Cc1cc(COCC2(c3ccccc3)CCNCC2)cc(-c2ccc(C#N)cc2)c1,
> 300 nM,0.01 to 100 nM,CN(C)C(=O)c1cc(COCC2(c3ccccc3)CCNCC2)cc(-c2ccc(C#N)cc2)c1,

IC50 [1],"IC50 [2, 3]",SMILES,IC50 [2]
> 300 nM,0.01 to 100 nM,N#Cc1ccc(-c2cc(COCC3(c4ccccc4)CCNCC3)cc(C(=O)N3CCCCC3)c2)cc1,
> 300 nM,0.01 to 100 nM,N#Cc1ccc(-c2cc(COCC3(c4ccccc4)CCNCC3)cc(C(=O)N3CCOCC3)c2)cc1,
> 300 nM,0.01 to 100 nM,Oc1cc(COCC2(c3ccccc3)CCNCC2)cc(-c2ccc(F)cc2)c1,
0.01 to 100 nM,0.01 to 100 nM,N#Cc1cc(COCC2(c3ccccc3)CCNCC2)cc(-c2ccc(F)cc2)c1,
> 300 nM,0.01 to 100 nM,NC(=O)c1cc(COCC2(c3ccccc3)CCNCC2)cc(-c2ccc(F)cc2)c1,
0.01 to 100 nM,0.01 to 100 nM,COc1cc(COCC2(c3ccccc3)CCNCC2)cc(-c2ccc(F)cc2)c1,
0.01 to 100 nM,0.01 to 100 nM,COc1c(C)cc(-c2ccc(C#N)cc2)cc1COCC1(c2ccccc2)CCNCC1,
0.01 to 100 nM,0.01 to 100 nM,COc1ccc(-c2cc(COCC3(c4ccccc4)CCNCC3)cc(C(F)(F)F)c2)nn1,
0.01 to 100 nM,0.01 to 100 nM,Cc1cc(-c2cc(COCC3(c4ccccc4)CCNCC3)cc(C(F)(F)F)c2)ccc1C#N,
0.01 to 100 nM,0.01 to 100 nM,N#Cc1ccc(-c2cc(COCC3(c4ccccc4)CCNCC3)cc(C(F)(F)F)c2)cc1Cl,
0.01 to 100 nM,0.01 to 100 nM,N#Cc1c(F)c(F)c(-c2cc(COCC3(c4ccccc4)CCNCC3)cc(C(F)(F)F)c2)c(F)c1F,
0.01 to 100 nM,0.01 to 100 nM,N#Cc1c(F)cc(-c2cc(COCC3(c4ccccc4)CCNCC3)cc(C(F)(F)F)c2)cc1F,
0.01 to 100 nM,0.01 to 100 nM,FC(F)(F)c1cc(COCC2(c3ccccc3)CCNCC2)cc(-c2cnc(Cl)nc2)c1,
0.01 to 100 nM,0.01 to 100 nM,COc1cc(F)c(-c2cc(COCC3(c4ccccc4)CCNCC3)cc(C(F)(F)F)c2)cc1F,
0.01 to 100 nM,0.01 to 100 nM,COc1cc(-c2cc(COCC3(c4ccccc4)CCNCC3)cc(C(F)(F)F)c2)ccc1C#N,
0.01 to 100 nM,0.01 to 100 nM,N#Cc1cc(F)c(-c2cc(COCC3(c4ccccc4)CCNCC3)cc(C(F)(F)F)c2)cc1F,
0.01 to 100 nM,0.01 to 100 nM,COc1c(F)cc(-c2cc(COCC3(c4ccccc4)CCNCC3)cc(C(F)(F)F)c2)cc1F,

SMILES,IC50 [1],"IC50 [2, 3]",IC50 [2]
CN1CCC(COCc2cc(-c3ccc(Cl)cc3)cc(C(F)(F)F)c2)(c2ccccc2)CC1,0.01 to 100 nM,,0.01 to 100 nM
COc1ccc(-c2cc(COCC3(c4ccccc4)CCN(C)CC3)cc(C(F)(F)F)c2)cc1,0.01 to 100 nM,,0.01 to 100 nM
CN1CCC(COCc2cc(-c3ccc(F)cc3)cc(C(F)(F)F)c2)(c2ccccc2)CC1,0.01 to 100 nM,,0.01 to 100 nM
CN1CCC(COCc2cc(-c3ccc(F)c(Cl)c3)cc(C(F)(F)F)c2)(c2ccccc2)CC1,0.01 to 100 nM,,0.01 to 100 nM
CN1CCC(COCc2cc(-c3cccc(F)c3)cc(C(F)(F)F)c2)(c2ccccc2)CC1,0.01 to 100 nM,,0.01 to 100 nM
CN1CCC(COCc2cc(-c3ccc(F)cc3F)cc(C(F)(F)F)c2)(c2ccccc2)CC1,0.01 to 100 nM,,0.01 to 100 nM
COc1ccc(-c2cc(COCC3(c4ccccc4)CCN(C)CC3)cc(C(F)(F)F)c2)cc1F,0.01 to 100 nM,,0.01 to 100 nM
CN1CCC(COCc2cc(F)cc(-c3ccc(C#N)cc3)c2)(c2ccccc2)CC1,0.01 to 100 nM,,0.01 to 100 nM
CN1CCC(COCc2cc(F)cc(-c3ccc(F)cc3)c2)(c2ccccc2)CC1,100 to 300 nM,,0.01 to 100 nM
CN1CCC(COCc2cc(-c3ccc(F)cc3)cc(C(F)(F)F)c2)(c2ccc(F)cc2)CC1,0.01 to 100 nM,,0.01 to 100 nM
CCN1CCC(COCc2cc(-c3ccc(C#N)cc3)cc(C(F)(F)F)c2)(c2ccccc2)CC1,0.01 to 100 nM,> 300 nM,
N#Cc1ccc(-c2cc(COCC3(c4ccccc4)CCN(Cc4ccccc4)CC3)cc(C(F)(F)F)c2)cc1,0.01 to 100 nM,> 300 nM,
N#Cc1ccc(-c2cc(COCC3(c4ccccc4)CCN(C4CC4)CC3)cc(C(F)(F)F)c2)cc1,0.01 to 100 nM,> 300 nM,
CN1CCC(COCc2cc(-c3cc(F)c(C#N)c(F)c3)cc(C(F)(F)F)c2)(c2ccccc2)CC1,0.01 to 100 nM,,0.01 to 100 nM
CN1CCC(COCc2cc(-c3c(F)c(F)c(C#N)c(F)c3F)cc(C(F)(F)F)c2)(c2ccccc2)CC1,0.01 to 100 nM,,0.01 to 100 nM
CN1CCC(COCc2cc(-c3ccc(C#N)c(Cl)c3)cc(C(F)(F)F)c2)(c2ccccc2)CC1,0.01 to 100 nM,,0.01 to 100 nM
Cc1cc(-c2cc(COCC3(c4ccccc4)CCN(C)CC3)cc(C(F)(F)F)c2)ccc1C#N,0.01 to 100 nM,,0.01 to 100 nM
C[C@@H](OCC1(c2ccccc2)CCN(C)CC1)c1cc(-c2ccc(C#N)cc2)cc(C(F)(F)F)c1,0.01 to 100 nM,,0.01 to 100 nM
CN1CCC(COCc2cc(-c3ccc(C#N)cc3)cc(C(F)(F)F)c2)(c2ccccc2F)CC1,0.01 to 100 nM,,0.01 to 100 nM
